From patent EP1501797B1, “3-(SUBSTITUTED AMINO)-1H-INDOLE-2-CARBOXYLIC ACID ESTER AND 3-(SUBSTITUTED AMINO)-BENZO[B]THIOPHENE-2-CARBOXYLIC ACID ESTER DERIVATIVES AS INTERLEUKIN-4 GENE EXPRESSION INHIBITORS” (Aventis Pharmaceuticals Inc., priority 2002, dated 2003) come the findings set out here.

Assay [1] relates to sheep allergic to Ascaris suum. The experiment in a line: Sheep asthma model (Ascaris suum antigen challenge). In kind it is in vivo. Here is the method: Briefly, transpulmonary pressure, pulmonary resistance (RL), specific lung resistance (SRL airway hyperreactivity, airway responsiveness, are determined.
Venous blood samples (-5 ml) are obtained from a peripheral leg vein or the jugular vein for pharmacokinetic data. Measurement of Airway Mechanics: The unsedated sheep are restrained in a cart in the prone position with their heads immobilized. After topical anesthesia of the nasal passages with 2% lidocaine solution, a balloon catheter is advanced through one nostril into the lower esophagus. The animals are […] with a cuffed endotracheal tube through the other nostril using a flexible fiberoptic bronchoscope as a guide. (The cuff of the endotracheal tube is inflated only for the measurement of airway mechanics and during aerosol challenges to prevent undue discomfort. This procedure has no effect on airway mechanics). Pleural pressure is estimated with the esophageal balloon catheter (filled with one ml of air) which is positioned 5-10 cm from the gastroesophageal junction. In this position the end expiratory pleural pressure ranges between -2 and -5 cm H20. […] Lateral pressure in the trachea is measured with a sidehole catheter (inner dimension, 2.5 mm) advanced through and positioned distal to the tip of the endotracheal tube. Transpulmonary pressure, the difference between tracheal and pleural pressure, is measured with a differential pressure transducer catheter system. […] The signals of flow and transpulmonary pressure is recorded on an oscilloscope recorder which is linked to a computer for on-line calculation of RL from transpulmonary pressure, respiratory volume (obtained by digital integration) and flow. […] Immediately after the measurement of RL, thoracic gas volume (Vtg) is measured in a constant volume body plethysmograph to obtain specific lung resistance (SRL = RL . Vtg) in L x cm H20/LPS. […] To assess airway responsiveness, the cumulative carbachol dose in breath units (BU) that increases SRL 400% over the post-buffer value (i.e. PC400) is calculated from the dose response curve. […]

Another assay concerns IL-4. Nature of the assay: In vivo ovalbumin (OVA) mouse model, BALF IL-4. Details: species or system mice. The conditions noted are these: for IL-4 pg/ml (± SEM): 30 minutes before OVA challenge, BALF 24 hours, vehicle 1220.4 ± 207.7. Here is the method: This model is designed to determine the ability of a test article to modulate an antigen-induced pulmonary inflammatory cell accumulation in sensitized Balb/c mice from Charles River Laboratories. The mice are given a two week time period from arrival date prior to sensitizations.
On days 0, 7, 14, each animal is injected intraperitoneal (i.p.) with a 0.2 ml Ovalbumin Hydragel solution. Each animal receives 10 µg of Ovalbumin in 0.2 mL of Hydragel, aluminum hydroxide adsorptive gel containing 2% aluminum oxide. […] On day 22, BALF samples are collected from one group of animals and used for cytokine analysis. On day 24, BALF is obtained from a second group of animals and used for differential cell counts.
Test System: Female Babl/cJ mice (Jackson Laboratories), approximately 6-9 weeks old, each weighing approximately 20 to 25 grams, are divided into ten animals per group.
Sensitization Regimen: Mice are sensitized by an intraperitoneal injection of 10 µg ovalbumin (OVA) mixed in 4 mg aluminum hydroxide Al(OH)3 gel suspension in 0.2 ml sterile saline on Days 0, 7 and 14. This suspension is prepared one hour before intraperitoneal injection into each mouse. The animals are ready for OVA challenge on Day 21.
Antigen Challenge: Animals are exposed to aerosolized OVA on day 21 (5% w/v in sterile saline) for 20 minutes. The aerosol is generated by a PARI-Master nebulizer, the outlet of which is connected to a small Plexiglas® chamber containing the animals. Bronchoalveolar lavage is performed on Day 22.
Method of Study Performance: On day 24, 72 hours following aerosol OVA exposure, a separate group of animals are anesthetized with urethane (0.15 - 0.2 gm/kg) and the trachea is exposed and cannulated. Lungs are lavaged with 2 x 0.5 ml Hank's balanced salt solution without Ca^2+ and Mg^2+ (HBSS; Gibco, Grand Island, NY) containing 0.1% EDTA. Lavage fluid is recovered after 30 sec by gentle aspiration and pooled for each animal. Samples are centrifuged at 2000 rpm for 15 minutes at 5°C. After centrifugation, individual supernatants are stored frozen at -80°C. The resulting pellet is resuspended in 0.5 ml of HBSS containing 0.1% EDTA. Total cells and eosinophils are determined using a Technicon Hl and cytoslides, respectively.
Administration of the Test/Control Article: The test article and vehicle dosing preparations are administered once to each anesthetized mouse intranasally using a 200 µl pipette at 30-60 minutes prior to OVA challenge. Each animal receives 50 µl (25 µl/nostril) at each time point. Method of Euthanasia: Urethane overdose at in-life completion.
Compounds administered 30 minutes before aerosol ovalbumin challenge in ova sensitized mice. BALF harvested 24 hours after aerosol challenge. N = 6/group.
Mice (12 animals per group) are sensitized with 0.2 ml of an AlOH3 hydrogel suspension (2% AlOH3) containing 50 µg/ml ovalbumin on days 0, 7 and 14. […] The glucocorticosteroid budesonide (10 mg/kg) is included as a control. All compounds are given in 0.5% methylcellulose/0.2% Tween 80, intranasally (50µl). After the OVA challenge for 24 hours, the mice underwent bronchoalveolar lavage and IL-4 and IL-13 levels in the BALF are determined by ELISA. Another group of mice underwent bronchoalveolar lavage (72 hours after treatment) to determine the number of the eosinophils (*p<0.05, **p<0.01).
Compounds are given (30 mg/kg), intranasally, once, 30 min before OVA challenge unless noted otherwise. BAL fluids are collected 24 hours after OVA challenge and the cytokine levels are measured by standard ELISAs.

Setting [2] is: 3 mg/kg aerosol 30 min before antigen challenge, 2 sheep per group, FIG. 3A.

`O=C(O)c1[nH]c2ccccc2c1Nc1ccncc1` [Example 28, 3-(4-Pyridinylamino)-1H-indole-2-carboxylic acid]: the “acute increase in specific lung resistance (SRL), early bronchial response” value in assay [1] (setting [2]) is on record as “did not affect”. Further, the “late bronchial response (SRL)” value in assay [1] (setting [2]) was “blocked the late response”. In addition, the “post challenge airway responsiveness (PC400 decrease after antigen challenge)” value in assay [1] (3 mg/kg, 2 sheep, FIG. 3B) is given as “prevented this effect”. Also, the “IL-4 pg/ml (± SEM)” value in the assay with IL-4 (3 mg/kg intranasal) was determined as 835.1 ± 40.4 pg/mL; in the assay on IL-4 (10 mg/kg intranasal), 414.3 ± 115.5 pg/mL; in the assay on IL-4 (30 mg/kg intranasal), 123.9 ± 48.7 pg/mL. In addition, the ED50 in the assay with IL-4 (Mus musculus, mice, intranasally, FIG. 1, read-out: ED50, allergen-induced IL-4 levels in the BALF) was ~10 mg/kg.
